According to US20250059220A1, “SUBSTITUTED BENZOTHIOPHENE DERIVATIVES AND METHODS OF USE THEREOF” (Merck Sharp & Dohme LLC, priority 2021, published 2025):

Columns and labels:
[1] = biological target: human PTPN1 (1-435) (Homo sapiens (Human), UniProt P18031); experiment: Human PTPN1 Biochemical Assay; settings: DiFMUP substrate, read-out: PTP1B IC50
Procedure: Human PTPN1 Biochemical Assay
Test compounds were dissolved in DMSO, and 10-point serial 3-fold dilution series in DMSO were prepared in Echo Qualified 384-well Polypropylene Microplates (Labcyte, San Jose, CA) (top concentration 50 µM). […] 5 μl of assay buffer was added into the low control. The plate was incubated for 30 minutes at room temperature. Subsequently, 5 μl of 100 µM DiFMUP (6,8-difluoro-4-methylumbelliferyl phosphate) solution (prepared in assay buffer from 10 mM stock in DMSO) was added to the assay plate and incubated for 1 hour at room temperature. For detection, assay plates were read on SpectraMax Microplate Reader (Molecular Devices), with Excitation wavelength=360 nm and Emission wavelength=460 nm. […] Calculated % effects were fit using a 4-parameter algorithm, and EC50 was reported.

[2] = biological target: human PTPN2 (1-387) (Homo sapiens (Human), UniProt P17706); experiment: Human PTPN2 Biochemical Assay; settings: DiFMUP substrate
human PTPN2 (1-387), sequence (P17706 other isoform, or with tags, fused parts or gaps): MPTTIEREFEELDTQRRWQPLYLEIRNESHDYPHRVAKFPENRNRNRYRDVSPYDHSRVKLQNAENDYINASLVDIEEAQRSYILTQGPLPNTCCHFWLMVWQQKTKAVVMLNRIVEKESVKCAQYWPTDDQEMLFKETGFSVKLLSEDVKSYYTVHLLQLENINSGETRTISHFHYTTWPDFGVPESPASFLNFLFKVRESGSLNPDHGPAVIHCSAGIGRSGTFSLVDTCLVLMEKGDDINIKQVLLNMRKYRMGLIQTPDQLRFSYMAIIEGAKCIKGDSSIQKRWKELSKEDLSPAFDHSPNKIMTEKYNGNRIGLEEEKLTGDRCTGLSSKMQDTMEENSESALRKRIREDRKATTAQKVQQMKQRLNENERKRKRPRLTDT
Procedure: Human PTPN2 Biochemical Assay
Test compounds were dissolved in DMSO, and 10-point serial 3-fold dilution series in DMSO were prepared in Echo Qualified 384-well Polypropylene Microplates (Labcyte, San Jose, CA) (top concentration 50 µM). Assay plates (384-well low volume black plates; Corning #3820, Corning, NY) were prepared by dispensing 50 nL of test compound, and DMSO (for high and low controls) by ECHO acoustic dispenser (Labcyte, San Jose CA). This was followed by addition of 5 μL of 0.2 nM human PTPN2 (1-387) solution (prepared in the assay buffer, 50 mM Tris pH 7.4, 150 mM NaCl, 0.01% Tween20, 0.5 mM dithiothreitol) to all wells except the low control. 5 μl of assay buffer was added into the low control, then the plate was incubated for 30 minutes at room temperature. Subsequently, 5 μl of 100 µM DiFMUP (6,8-difluoro-4-methylumbelliferyl phosphate) solution (prepared in assay buffer from 10 mM stock in DMSO) was added to the assay plate and incubated for 1 hour at room temperature. For detection, assay plates were read on SpectraMax Microplate Reader (Molecular Devices), with Excitation wavelength=360 nm and Emission wavelength=460 nm. Test compound effects were normalized to the window defined by the controls, DMSO/buffer, and DMSO/50 pM human PTPN2. Calculated % effects were fit using a 4-parameter algorithm, and EC50 was reported.

human PTPN1 (1-435), sequence (P18031 whole entry): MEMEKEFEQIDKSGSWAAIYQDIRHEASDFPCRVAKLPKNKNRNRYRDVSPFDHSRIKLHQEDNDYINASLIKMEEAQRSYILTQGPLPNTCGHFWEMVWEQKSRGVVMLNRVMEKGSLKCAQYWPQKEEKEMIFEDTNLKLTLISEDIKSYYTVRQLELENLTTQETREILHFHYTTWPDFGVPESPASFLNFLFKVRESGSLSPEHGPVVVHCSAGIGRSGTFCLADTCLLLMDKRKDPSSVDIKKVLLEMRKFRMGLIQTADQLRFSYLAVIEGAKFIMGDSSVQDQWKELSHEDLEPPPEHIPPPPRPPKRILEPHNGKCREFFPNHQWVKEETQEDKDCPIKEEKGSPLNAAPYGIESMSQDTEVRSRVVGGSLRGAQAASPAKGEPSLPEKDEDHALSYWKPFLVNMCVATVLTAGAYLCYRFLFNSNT

| Compound | IC50 [1] [nM] | IC50 [2] [nM] |
| --- | --- | --- |
| Cc1ccc(CNC(=O)c2ccc3sc(C(F)(F)P(=O)(O)O)c(Br)c3c2)nn1 [Compound 137] | 1090 | 1420 |
| Cn1cnc(CNC(=O)c2ccc3sc(C(F)(F)P(=O)(O)O)c(Br)c3c2)n1 [Compound 181] | 2420 | 4100 |
| O=P(O)(O)C(F)(F)c1sc2ccc(-c3ncc[nH]3)cc2c1Br [Compound 228, ((3-bromo-5-(1H-imidazol-2-yl)benzo[b]thiophen-2-yl)difluoromethyl)phosphonic acid] | 1850 | 1610 |
| O=C(NCc1cc[nH]n1)c1ccc2sc(C(F)(F)P(=O)(O)O)c(Br)c2c1 [Compound 202] | 2320 | 3650 |
| O=C(Nc1ccccc1)Nc1ccc2sc(C(F)(F)P(=O)(O)O)c(Br)c2c1 [Compound 219, ((3-bromo-5-(3-phenylureido)benzo[b]thiophen-2-yl)difluoromethyl)phosphonic acid] | 4660 | 3740 |
| O=C(N[C@H]1CC[C@@H](C(F)(F)F)CC1)c1ccc2sc(C(F)(F)P(=O)(O)O)c(Br)c2c1 [Compound 54] | 5030 | 6750 |
| CC(NC(=O)c1ccc2sc(C(F)(F)P(=O)(O)O)c(Br)c2c1)c1cccnn1 (single isomer, unassigned) [Compound 225, (R or S)-((3-bromo-5-((1-(pyridazin-3-yl)ethyl)carbamoyl)benzo[b]thiophen-2-yl)difluoromethyl)phosphonic acid] | 2410 | 2200 |
| Cc1ncc(-c2cc(OCCCC(F)(F)F)c3sc(C(F)(F)P(=O)(O)O)c(Br)c3c2)[nH]1 [Compound 452, ((3-bromo-5-(2-methyl-1H-imidazol-5-yl)-7-(4,4,4-trifluorobutoxy)benzo[b]thiophen-2-yl)difluoromethyl)phosphonic acid] | 71.9 | 63.9 |
| N#Cc1cc(C(=O)NCc2cccnn2)cc2c(Br)c(C(F)(F)P(=O)(O)O)sc12 [Compound 161] | 446 | 344 |
| CCN1C(=O)CCC12C[C@H]2CCNC(=O)c1ccc2sc(C(F)(F)P(=O)(O)O)c(Br)c2c1 (stereo partly drawn) [Compound 85] | 4670 | 4540 |
| O=C(Nc1ccc(Sc2ccccc2)nc1)c1ccc2sc(C(F)(F)P(=O)(O)O)c(Br)c2c1 [Compound 100] | 540 | 682 |
| O=C(NCc1cnc2[nH]ccc2c1)c1ccc2sc(C(F)(F)P(=O)(O)O)c(Br)c2c1 [Compound 119] | 404 | 630 |
| O=C(NCc1ccc(F)nc1)c1ccc2sc(C(F)(F)P(=O)(O)O)c(Br)c2c1 [Compound 133] | 1450 | 1180 |
| O=C(NCCCC(F)(F)F)c1ccc2sc(C(F)(F)P(=O)(O)O)c(Br)c2c1 [Compound 47] | 4210 | 4910 |

The remaining lines, values ahead:

| IC50 [1] [nM] | IC50 [2] [nM] | Compound |
| --- | --- | --- |
| 7350 | 26500 | N#Cc1ccc2cc(C(F)(F)P(=O)(O)O)sc2c1Br [Compound 297, ((7-bromo-6-cyanobenzo[b]thiophen-2-yl)difluoromethyl)phosphonic acid] |
| 23.4 | 25.2 | NC(=O)c1cc(OCCCCS(N)(=O)=O)c2sc(C(F)(F)P(=O)(O)O)c(Br)c2c1 [Compound 308] |
| 117 | 114 | Cc1c(C(F)(F)P(=O)(O)O)sc2c(OCCCS(N)(=O)=O)cc(C(N)=O)cc12 [Compound 432] |
| 2.5 | 2.5 | NS(=O)(=O)CCCOc1cc(-c2nc[nH]n2)cc2c(Br)c(C(F)(F)P(=O)(O)O)sc12 [Compound 440] |
| 153 | 170 | CC1CCS(=O)(=O)C1CCOc1cc(C(N)=O)cc2c(Br)c(C(F)(F)P(=O)(O)O)sc12 (stereo not drawn) [Compound 392] |
| 128 | 19.3 | NC(=O)c1cc(OCc2ccc(-c3ncccn3)cc2)c2sc(C(F)(F)P(=O)(O)O)c(Br)c2c1 [Compound 343] |
| 55.4 | 53.9 | CCCCCOc1cc(C(N)=O)cc2c(Br)c(C(F)(F)P(=O)(O)O)sc12 [Compound 239] |
